Experimental data reported in patent US20080009418A1, “Selective Inhibitors” (Alchemia LTD., priority 2004, published 2008).

What was measured:
Human δ-opioid (DOP) = target: T1, Human δ-opioid (DOP) (Homo sapiens, UniProt P41143); test: Radioligand binding, human δ-opioid (DOP) membranes, FlashPlate, [3H]-Bremazocine; settings: compound at 10 μM; [3H]-Bremazocine
T1 construct: purchased Perkin Elmer Biosignal
Procedure, shortened: (§1)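 Cloned human receptor membranes were coated onto FlashPlate wells and incubated with radioligand and compound (added from a 0.5 mM DMSO daughter plate) for 1 hour at room temperature in the dark. Scintillation counting gave percent inhibition, with DMSO defining total and reference ligand defining non-specific binding.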

Mouse urotensin (mUR2) = target: T2, Mouse urotensin (mUR2) (Mus musculus, UniProt Q8VIH9); test: Radioligand binding, mouse urotensin mUR2 membranes, FlashPlate, [125I]-Urotensin II; settings: compound at 10 μM; [125I]-Urotensin II
T2 construct: purchased Perkin Elmer Biosignal
T2 sequence (Q8VIH9 1-385): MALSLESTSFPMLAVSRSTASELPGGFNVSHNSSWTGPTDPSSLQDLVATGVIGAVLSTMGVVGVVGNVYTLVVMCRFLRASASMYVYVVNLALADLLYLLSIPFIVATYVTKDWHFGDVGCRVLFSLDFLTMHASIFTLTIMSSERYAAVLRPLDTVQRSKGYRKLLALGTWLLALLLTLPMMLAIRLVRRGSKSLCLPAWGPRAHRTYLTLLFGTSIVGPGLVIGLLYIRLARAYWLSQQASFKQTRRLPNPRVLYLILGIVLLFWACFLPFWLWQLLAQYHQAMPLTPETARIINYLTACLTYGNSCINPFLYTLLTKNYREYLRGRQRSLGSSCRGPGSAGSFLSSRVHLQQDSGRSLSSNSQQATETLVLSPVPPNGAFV
Procedure, shortened: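 Cloned mouse urotensin (mUR2) receptor membranes from Perkin Elmer Biosignal were immobilized in FlashPlate microplates using a proprietary coating. Each well got 19.5 μl buffer, then 0.5 μl of DMSO, reference ligand, or compound. Adding 5 μl of [125I]-Urotensin II, diluted to 5× final concentration in binding buffer, started binding. Plates were sealed with TopSeal-A and incubated 1 hour at room temperature in the dark. Wells were counted for 30 seconds each on a TopCount after a 60-second delay, and percentage inhibition was calculated.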

Human Melanocortin (MC4) = target: T3, Human Melanocortin (MC4) (Homo sapiens, UniProt P32245); test: Radioligand binding, human melanocortin MC4 membranes, FlashPlate, [125I]-NDP-αMSH; settings: compound at 10 μM; [125I]-NDP-αMSH
T3 construct: purchased Perkin Elmer Biosignal
Procedure, shortened: as §1

Human κ-Opioid (KOP) = target: T4, Human κ-Opioid (KOP) (Homo sapiens, UniProt P41145); test: Radioligand binding, human κ-opioid (KOP) membranes, filtration, [3H]-Diprenorphine; settings: compound at 10 μM; [3H]-Diprenorphine
T4 construct: purchased Perkin Elmer Biosignal
Procedure, shortened: (§2)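 Filtration binding on cloned human receptor membranes (1 Unit/well), [125I]-Substance P for NK1 and [3H]-Diprenorphine for KOP, 1 h at room temperature. Filters PEI-presoaked, washed with cold 50 mM Tris-HCl pH 7.4, counted by scintillation; percent inhibition calculated, reference ligand defining non-specific binding.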

[1] = target: T5, Human melanin-concentrating hormone (MCH1) (Homo sapiens, UniProt Q99705); test: Radioligand binding, human melanin-concentrating hormone MCH1 membranes, FlashPlate, [125I]-S36057; settings: compound at 10 μM; [125I]-S36057
T5 construct: purchased Perkin Elmer Biosignal
Procedure, shortened: as §1

Human melanocortin (MC5) = target: T6, Human melanocortin (MC5) (Homo sapiens, UniProt P33032); test: Radioligand binding, human melanocortin MC5 membranes, FlashPlate, [125I]-NDP-αMSH; settings: compound at 10 μM; [125I]-NDP-αMSH
T6 construct: purchased Perkin Elmer Biosignal
Procedure, shortened: as §1

Human μ-opioid (MOP) = target: T7, Human μ-opioid (MOP) (Homo sapiens, UniProt P35372); test: Radioligand binding, human μ-opioid (MOP) membranes, FlashPlate, [3H]-Naloxone; settings: compound at 10 μM; [3H]-Naloxone
T7 construct: purchased Perkin Elmer Biosignal
Procedure, shortened: as §1

Human opioid (ORL1) = target: T8, Human opioid (ORL1) (Homo sapiens, UniProt P41146); test: Radioligand binding, human opioid ORL1 membranes, FlashPlate, [125I]-Nociceptin; settings: compound at 10 μM; [125I]-Nociceptin
T8 construct: purchased Perkin Elmer Biosignal
Procedure, shortened: as §1

Human neurokinin (NK1) = target: T9, Human neurokinin (NK1) (Homo sapiens, UniProt P25103); test: Radioligand binding, human neurokinin NK1 membranes, filtration, [125I]-Substance P; settings: compound at 10 μM; [125I]-Substance P
T9 construct: purchased Perkin Elmer Biosignal
Procedure, shortened: as §2

[2] = target: T10, Human neuropeptide Y (NPY-Y1) (Homo sapiens, UniProt P25929); test: Radioligand binding, human neuropeptide Y NPY-Y1 membranes, FlashPlate, [125I]-PYY; settings: compound at 10 μM; [125I]-PYY
T10 construct: purchased Perkin Elmer Biosignal
T10 sequence (P25929 1-384): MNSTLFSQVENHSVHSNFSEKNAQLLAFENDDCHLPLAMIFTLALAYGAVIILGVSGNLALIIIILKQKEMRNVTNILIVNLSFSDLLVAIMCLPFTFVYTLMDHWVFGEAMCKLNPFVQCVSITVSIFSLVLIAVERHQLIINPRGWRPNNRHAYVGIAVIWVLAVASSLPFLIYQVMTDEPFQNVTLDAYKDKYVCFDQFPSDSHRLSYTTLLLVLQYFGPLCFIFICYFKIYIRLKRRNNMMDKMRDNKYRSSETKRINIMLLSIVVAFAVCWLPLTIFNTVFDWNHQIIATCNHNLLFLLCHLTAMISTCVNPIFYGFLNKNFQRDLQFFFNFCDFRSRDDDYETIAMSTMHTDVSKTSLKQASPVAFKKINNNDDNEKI
Procedure, shortened: as §1

Human Melanocortin (MC3) = target: T11, Human Melanocortin (MC3) (Homo sapiens, UniProt P41968); test: Radioligand binding, human melanocortin MC3 membranes, FlashPlate, [125I]-NDP-αMSH; settings: compound at 10 μM; [125I]-NDP-αMSH
T11 construct: purchased Perkin Elmer Biosignal
Procedure, shortened: as §1

T11 sequence (P41968 whole entry): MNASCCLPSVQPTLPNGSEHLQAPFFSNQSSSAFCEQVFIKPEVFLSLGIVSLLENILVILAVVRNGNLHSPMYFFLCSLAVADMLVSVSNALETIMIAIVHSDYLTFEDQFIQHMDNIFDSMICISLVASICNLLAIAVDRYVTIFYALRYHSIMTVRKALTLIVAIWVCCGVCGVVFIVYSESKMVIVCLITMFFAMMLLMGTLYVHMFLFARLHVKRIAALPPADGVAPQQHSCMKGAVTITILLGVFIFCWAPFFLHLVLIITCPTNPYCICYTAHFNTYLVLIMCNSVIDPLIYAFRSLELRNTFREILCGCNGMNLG
T9 sequence (P25103 whole entry): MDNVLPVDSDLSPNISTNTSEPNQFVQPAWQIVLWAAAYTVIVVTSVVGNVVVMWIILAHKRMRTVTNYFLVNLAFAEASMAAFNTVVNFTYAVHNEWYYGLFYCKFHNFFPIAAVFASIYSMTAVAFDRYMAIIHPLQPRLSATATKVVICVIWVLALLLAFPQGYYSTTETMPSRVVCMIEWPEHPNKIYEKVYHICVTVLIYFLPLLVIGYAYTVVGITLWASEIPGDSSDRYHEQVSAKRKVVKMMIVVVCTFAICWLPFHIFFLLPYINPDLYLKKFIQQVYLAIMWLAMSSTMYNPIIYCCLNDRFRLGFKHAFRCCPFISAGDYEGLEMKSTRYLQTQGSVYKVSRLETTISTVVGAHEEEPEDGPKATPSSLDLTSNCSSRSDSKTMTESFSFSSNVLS
T3 sequence (P32245 whole entry): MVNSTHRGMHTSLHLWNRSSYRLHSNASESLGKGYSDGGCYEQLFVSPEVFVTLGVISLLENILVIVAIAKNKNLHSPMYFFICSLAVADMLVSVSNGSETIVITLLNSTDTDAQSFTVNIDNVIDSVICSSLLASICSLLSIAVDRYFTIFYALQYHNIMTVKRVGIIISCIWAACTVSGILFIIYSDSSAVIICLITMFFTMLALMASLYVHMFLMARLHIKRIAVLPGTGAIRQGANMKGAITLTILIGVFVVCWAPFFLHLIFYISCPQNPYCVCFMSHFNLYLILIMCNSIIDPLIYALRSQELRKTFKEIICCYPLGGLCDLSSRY
T1 sequence (P41143 whole entry): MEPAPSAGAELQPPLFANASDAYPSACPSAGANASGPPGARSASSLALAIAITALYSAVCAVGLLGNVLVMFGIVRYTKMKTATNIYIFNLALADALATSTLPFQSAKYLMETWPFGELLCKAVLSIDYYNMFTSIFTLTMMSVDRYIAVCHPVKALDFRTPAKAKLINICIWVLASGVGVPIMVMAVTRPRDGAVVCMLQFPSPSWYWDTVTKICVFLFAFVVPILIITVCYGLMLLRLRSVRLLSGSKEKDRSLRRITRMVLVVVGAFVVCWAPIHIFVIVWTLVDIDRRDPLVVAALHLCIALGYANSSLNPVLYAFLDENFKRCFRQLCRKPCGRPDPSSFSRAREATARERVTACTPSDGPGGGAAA
T5 sequence (Q99705 whole entry): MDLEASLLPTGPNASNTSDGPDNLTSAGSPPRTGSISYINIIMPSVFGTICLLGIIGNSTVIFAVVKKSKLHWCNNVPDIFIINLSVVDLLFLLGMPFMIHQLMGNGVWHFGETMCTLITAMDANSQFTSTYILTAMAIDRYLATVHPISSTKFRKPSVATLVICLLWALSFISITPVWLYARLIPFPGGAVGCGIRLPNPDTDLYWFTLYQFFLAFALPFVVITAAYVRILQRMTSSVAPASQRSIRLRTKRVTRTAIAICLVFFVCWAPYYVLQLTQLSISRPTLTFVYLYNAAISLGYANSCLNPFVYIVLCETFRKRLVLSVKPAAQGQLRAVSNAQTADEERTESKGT
T4 sequence (P41145 whole entry): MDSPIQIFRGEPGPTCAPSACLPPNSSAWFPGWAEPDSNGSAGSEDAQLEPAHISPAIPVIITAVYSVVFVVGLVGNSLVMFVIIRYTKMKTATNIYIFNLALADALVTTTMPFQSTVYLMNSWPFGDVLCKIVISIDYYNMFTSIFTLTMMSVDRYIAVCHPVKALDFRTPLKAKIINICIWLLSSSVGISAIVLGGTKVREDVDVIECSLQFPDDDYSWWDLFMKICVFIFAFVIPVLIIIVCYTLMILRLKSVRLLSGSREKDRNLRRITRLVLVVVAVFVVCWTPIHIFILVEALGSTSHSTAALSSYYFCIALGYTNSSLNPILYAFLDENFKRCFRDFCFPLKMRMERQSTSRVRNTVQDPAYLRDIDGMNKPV
T7 sequence (P35372 whole entry): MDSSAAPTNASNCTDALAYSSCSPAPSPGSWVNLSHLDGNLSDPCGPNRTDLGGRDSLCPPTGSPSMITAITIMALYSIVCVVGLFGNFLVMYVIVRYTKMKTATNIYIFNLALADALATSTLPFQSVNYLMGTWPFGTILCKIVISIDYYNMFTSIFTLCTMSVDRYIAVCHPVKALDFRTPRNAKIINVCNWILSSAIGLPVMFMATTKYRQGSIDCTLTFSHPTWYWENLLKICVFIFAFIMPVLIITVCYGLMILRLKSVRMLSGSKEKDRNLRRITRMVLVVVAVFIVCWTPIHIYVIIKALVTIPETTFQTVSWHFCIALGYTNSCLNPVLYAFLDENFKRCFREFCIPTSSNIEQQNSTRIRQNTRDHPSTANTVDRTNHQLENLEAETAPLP
T8 sequence (P41146 whole entry): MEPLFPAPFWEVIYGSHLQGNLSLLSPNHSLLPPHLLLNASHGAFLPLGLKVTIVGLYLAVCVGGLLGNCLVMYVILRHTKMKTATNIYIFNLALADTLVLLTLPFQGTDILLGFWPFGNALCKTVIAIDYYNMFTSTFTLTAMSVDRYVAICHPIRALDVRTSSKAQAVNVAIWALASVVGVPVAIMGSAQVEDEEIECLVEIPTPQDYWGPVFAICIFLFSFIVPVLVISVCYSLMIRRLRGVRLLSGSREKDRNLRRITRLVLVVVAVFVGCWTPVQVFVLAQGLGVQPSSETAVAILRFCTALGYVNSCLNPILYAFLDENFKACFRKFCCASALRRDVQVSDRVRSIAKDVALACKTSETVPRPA
T6 sequence (P33032 whole entry): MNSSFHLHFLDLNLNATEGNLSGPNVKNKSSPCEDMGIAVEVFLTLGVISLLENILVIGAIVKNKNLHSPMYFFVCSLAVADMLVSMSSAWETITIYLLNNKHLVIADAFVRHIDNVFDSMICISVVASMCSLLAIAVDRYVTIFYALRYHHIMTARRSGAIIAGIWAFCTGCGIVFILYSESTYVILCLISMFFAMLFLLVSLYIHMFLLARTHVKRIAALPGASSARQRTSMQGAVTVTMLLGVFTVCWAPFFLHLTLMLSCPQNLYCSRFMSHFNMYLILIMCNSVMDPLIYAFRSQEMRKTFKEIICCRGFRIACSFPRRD

Compound | A1 radioligand binding, percentage inhibition (Human δ-opioid (DOP)) | A11 radioligand binding, percentage inhibition (Mouse urotensin (mUR2)) | A4 radioligand binding, percentage inhibition (Human Melanocortin (MC4)) | A2 radioligand binding, percentage inhibition (Human κ-Opioid (KOP)) | A6 radioligand binding, percentage inhibition [1] | A5 radioligand binding, percentage inhibition (Human melanocortin (MC5)) | A7 radioligand binding, percentage inhibition (Human μ-opioid (MOP)) | A10 radioligand binding, percentage inhibition (Human opioid (ORL1)) | A8 radioligand binding, percentage inhibition (Human neurokinin (NK1)) | A9 radioligand binding, percentage inhibition [2] | A3 radioligand binding, percentage inhibition (Human Melanocortin (MC3))
CO[C@H]1[C@H](O)[C@@H](COCc2ccc(Cl)cc2)OC(OCc2ccc(Cl)cc2)[C@@H]1NC(=O)CNC(=N)N (stereo partly shown) [compound 105] | − (“−” indicates less than 50% inhibition at 10 μM) | − (“−” indicates less than 50% inhibition at 10 μM) | + (“+” indicates greater than 50% inhibition at 10 μM) | − (“−” indicates less than 50% inhibition at 10 μM) | − (“−” indicates less than 50% inhibition at 10 μM) | + (“+” indicates greater than 50% inhibition at 10 μM) | − (“−” indicates less than 50% inhibition at 10 μM) | − (“−” indicates less than 50% inhibition at 10 μM) | + (“+” indicates greater than 50% inhibition at 10 μM) | − (“−” indicates less than 50% inhibition at 10 μM) | − (“−” indicates less than 50% inhibition at 10 μM)
CO[C@H]1[C@H](O)[C@@H](COCc2ccc(Cl)cc2)OC(OCc2ccc(Cl)cc2)[C@@H]1NC(=O)CCNC(=N)N (stereo partly shown) [compound 106] | − (“−” indicates less than 50% inhibition at 10 μM) | − (“−” indicates less than 50% inhibition at 10 μM) | + (“+” indicates greater than 50% inhibition at 10 μM) | − (“−” indicates less than 50% inhibition at 10 μM) | − (“−” indicates less than 50% inhibition at 10 μM) | + (“+” indicates greater than 50% inhibition at 10 μM) | − (“−” indicates less than 50% inhibition at 10 μM) | − (“−” indicates less than 50% inhibition at 10 μM) | + (“+” indicates greater than 50% inhibition at 10 μM) | − (“−” indicates less than 50% inhibition at 10 μM) | + (“+” indicates greater than 50% inhibition at 10 μM)
CO[C@H]1[C@H](O)[C@@H](COCc2ccc(Cl)cc2)OC(OCc2ccc(Cl)cc2)[C@@H]1NC(=O)CCCN (stereo partly shown) [compound 107] | − (“−” indicates less than 50% inhibition at 10 μM) | − (“−” indicates less than 50% inhibition at 10 μM) | + (“+” indicates greater than 50% inhibition at 10 μM) | − (“−” indicates less than 50% inhibition at 10 μM) | − (“−” indicates less than 50% inhibition at 10 μM) | + (“+” indicates greater than 50% inhibition at 10 μM) | − (“−” indicates less than 50% inhibition at 10 μM) | − (“−” indicates less than 50% inhibition at 10 μM) | + (“+” indicates greater than 50% inhibition at 10 μM) | − (“−” indicates less than 50% inhibition at 10 μM) | − (“−” indicates less than 50% inhibition at 10 μM)
CO[C@H]1[C@H](O)[C@@H](COCc2ccc(Cl)cc2)OC(OCc2ccc(Cl)cc2)[C@@H]1NC(=O)CCCNC(=N)N (stereo partly shown) [compound 108] | − (“−” indicates less than 50% inhibition at 10 μM) | − (“−” indicates less than 50% inhibition at 10 μM) | + (“+” indicates greater than 50% inhibition at 10 μM) | − (“−” indicates less than 50% inhibition at 10 μM) | − (“−” indicates less than 50% inhibition at 10 μM) | + (“+” indicates greater than 50% inhibition at 10 μM) | − (“−” indicates less than 50% inhibition at 10 μM) | − (“−” indicates less than 50% inhibition at 10 μM) | + (“+” indicates greater than 50% inhibition at 10 μM) | − (“−” indicates less than 50% inhibition at 10 μM) | + (“+” indicates greater than 50% inhibition at 10 μM)
CO[C@H]1[C@H](O)[C@@H](COCc2ccc(-c3ccccc3)cc2)OC(OCCc2ccccc2)[C@@H]1NC(=O)CNC(=N)N (stereo partly shown) [compound 109] | − (“−” indicates less than 50% inhibition at 10 μM) | − (“−” indicates less than 50% inhibition at 10 μM) | + (“+” indicates greater than 50% inhibition at 10 μM) | − (“−” indicates less than 50% inhibition at 10 μM) | − (“−” indicates less than 50% inhibition at 10 μM) | + (“+” indicates greater than 50% inhibition at 10 μM) | − (“−” indicates less than 50% inhibition at 10 μM) | − (“−” indicates less than 50% inhibition at 10 μM) | − (“−” indicates less than 50% inhibition at 10 μM) | − (“−” indicates less than 50% inhibition at 10 μM) | + (“+” indicates greater than 50% inhibition at 10 μM)
